Laboratory results as given in patent US10736900B2, “Combinations of an FGFR inhibitor and an IGF1R inhibitor” (ASTEX THERAPEUTICS LTD, priority 2014, dated 2020).

What was measured:
DMS114 cells = experiment: Incucyte proliferation (% confluence over time), DMS114 cells, long-term treatment; format: cell-based; settings: compound A 1 microM, BMS-754807 300 nM, GSK1838705A 1 microM, each alone
Experimental: The insensitive cells were isolated and profiled with the aim to determine the active signaling pathways that act as drivers for their survival and/or proliferation. Therefore, DMS114 cells, a small cell lung cancer cell line with FGFR1 amplification were plated onto 10 cm culture plates and placed in an incubator at 37° C., 5% CO2. […] In the case of the parental cells with or without DMSO control, when the cells reached the confluence close to 100% they were trypsinized and re-plated back on the plate. […] After about 2-3 weeks from the initial treatment, cells were taken out of the plate by trypsinization and passaged on new plate for further expanding.
There were also treatments of the cells with single agents with or without DMSO or treatments with DMSO alone to serve as vehicle control. The proliferation of the cells was followed using the Incucyt machine, measuring the % of confluence of the cells over time.

resistant DMS114 cells [1] = experiment: Alamar blue proliferation assay, DMS114 cells resistant to compound A; format: cell-based
resistant DMS114 cells [2] = experiment: Incucyte proliferation, resistant DMS114 cells kept in compound A, long-term treatment; format: cell-based; settings: resistant DMS114 cells kept in compound A 1 microM; GSK1838705A 1 microM; over 33 days
Excerpt: An additional experiment was run wherein the resistant DMS114 cells were exposed to 1 microM of GSK1838705A and the growth/proliferation of the cells was monitored on the Incucyte machine. Cells were kept under this condition for over 33 days, and the medium was replaced twice a week.

[3] = tested on: DMS114 cells, a small cell lung cancer cell line with FGFR1 amplification; experiment: Alamar blue proliferation assay, parental DMS114 cells; format: cell-based; settings: Homo sapiens, DMS-114, 96 h, Parental cells (with DMSO control), 4 days
[4] = tested on: most sensitive cancer cell lines; experiment: Cell based proliferation assay (alamar blue assay), cancer cell lines; settings: read-out: IC50 in the most sensitive cancer cell lines
Experimental: Cells were seeded in 180 μl of medium at optimized cell densities in black 96 well plates with clear flat bottom. The outer wells were filled with 180 μl of medium. Cells were incubated for 24 hours at 37° C. and 5% CO2.
Compound/medium plates were placed on a shaker for 10 minutes and then 20 μl of compound in medium was added to the cells (10× dilution). Cells were incubated at 37° C. and 5% CO2 for 4 days until alamarBlue® readout.
After 4 days of incubation with compound: Add 40 μl of alamarBlue® ready to use mix to each well. Incubate plates at 37° C. and 5% CO2. Measure plates after 4 or 6 hours of incubation (depends on cell line).

## C[C@@]1(C(=O)Nc2ccc(F)nc2)CCCN1c1nc(Nc2cc(C3CC3)[nH]n2)c2cccn2n1 [BMS-754807]
DMS114 cells
  proliferation (% confluence over time), single agent: did not impact the proliferation

## CNC(=O)c1c(F)cccc1Nc1nc(Nc2cc3c(cc2OC)CCN3C(=O)CN(C)C)nc2[nH]ccc12 [GSK1838705A]
Resistant DMS114 cells [1]; Homo sapiens, DMS-114, 96 h, Resistant cells, 4 days
  IC50: 2000 nM
Resistant DMS114 cells [1]; resistant DMS114 cells
  inhibition of proliferation of resistant DMS114 cells: strongly inhibited the proliferation of the resistant DMS114 cells
Resistant DMS114 cells [2]
  proliferation of resistant cells, long term treatment: completely blocked and over the long term treatment (>30 days) did not gain ability to grow out
[3]
  IC50: > 10000 nM
DMS114 cells
  proliferation (% confluence over time), single agent: did not impact the proliferation

## COc1cc(OC)c(F)c(N(Cc2ncc[nH]2)c2ccc3ncc(-c4cnn(C)c4)nc3n2)c1 [compound B, N-(2-fluoro-3,5-dimethoxyphenyl)-N-(1H-imidazol-2-ylmethyl)-3-(1-methyl-1H-pyrazol-4-yl)pyrido[2,3-b]pyrazin-6-amine]
[4]
  IC50: < 10 nM
